Source: ChEMBL document CHEMBL1201862, “PubChem BioAssay data set” (2004)
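How tested: cells in 96-well plates exposed to compound for 48 hours at five concentrations. Here, GI50 denotes the concentration required for 50% inhibition of growth.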 Calls of active or inactive are those of the source. Rule as the data show it: active = GI50 up to about 1.1 µM and inactive = higher.

Legend:
Assay in all cases: inhibition of tumour cell growth, NCI panel, 48 h
[1] = system: MDA-N
[2] = system: IGROV-1
[3] = system: MOLT-4
[4] = system: NCI-H522
[5] = system: OVCAR-3
[6] = system: A549
[7] = system: RPMI-8226
[8] = system: Malme-3M
[9] = system: OVCAR-8
[10] = system: CCRF-CEM
[11] = system: K562
[12] = system: SK-MEL-5
[13] = system: UO-31
[14] = system: BT-549
[15] = system: HCT-15
[16] = system: 786-0
[17] = system: SR
[18] = system: SK-MEL-2
[19] = system: SF-295
[20] = system: OVCAR-5

Row | SMILES | GI50 [1] | GI50 [2] | GI50 [3] | GI50 [4] | GI50 [5] | GI50 [6] | GI50 [7] | GI50 [8] | GI50 [9] | GI50 [10] | GI50 [11] | GI50 [12] | GI50 [13] | GI50 [14] | GI50 [15] [µM] | GI50 [16] | GI50 [17] | GI50 [18] | GI50 [19] | GI50 [20]
1 | Cc1cc(C)c2c(c1)C(=O)/C(=C/c1ccccc1C(=O)O)C2 | 67.5 µM (inactive) | > 100 µM (inactive) | 34.4 µM (inactive) | 20.6 µM (inactive) | 22.5 µM (inactive) | 65.6 µM (inactive) | 55.1 µM (inactive) | > 100 µM (inactive) | 68.4 µM (inactive) | 44.2 µM (inactive) | 52.5 µM (inactive) | 59.8 µM (inactive) | > 100 µM (inactive) | 78 µM (inactive) | 54.3 | > 100 µM (inactive) | 62.4 µM (inactive) | > 100 µM (inactive) | 52.2 µM (inactive) | 
2 | C=C(C)[C@@H]1CCc2c(c(C)cc(O)c(=O)c2O)C1 | 3.08 µM (inactive) | 0.179 µM (active) | 1.4 µM (inactive) | 0.247 µM (active) |  | 1.17 µM (inactive) | 3.57 µM (inactive) | 3.43 µM (inactive) | 0.706 µM (active) | 0.412 µM (active) | 0.881 µM (active) | 0.564 µM (active) | 0.92 µM (active) | 8.95 µM (inactive) | 0.0838 | 1.41 µM (inactive) | 0.515 µM (active) | 4.79 µM (inactive) | 2 µM (inactive) | > 73.1 µM (inactive)
3 | Oc1ccc(C(c2ccc(O)cc2)c2ccc(O)cc2)cc1 | 25.9 µM (inactive) | 14.3 µM (inactive) | 20.6 µM (inactive) | 17.1 µM (inactive) |  | 35.9 µM (inactive) | 27.2 µM (inactive) | 16.5 µM (inactive) | 15.6 µM (inactive) | 33.6 µM (inactive) |  | 13.8 µM (inactive) | 18.4 µM (inactive) | 20.5 µM (inactive) | 23.9 | 17.6 µM (inactive) | 37.1 µM (inactive) | 19.8 µM (inactive) | 41.4 µM (inactive) | 
4 | Cc1cccc2oc3c(CC(=O)O)cccc3c(=O)c12 | > 100 µM (inactive) | > 100 µM (inactive) | > 100 µM (inactive) | > 100 µM (inactive) | > 100 µM (inactive) | > 100 µM (inactive) | > 100 µM (inactive) | > 100 µM (inactive) | > 100 µM (inactive) | > 100 µM (inactive) | > 100 µM (inactive) | > 100 µM (inactive) | > 100 µM (inactive) | > 100 µM (inactive) | > 100 | > 100 µM (inactive) | > 100 µM (inactive) | 5.16 µM (inactive) | > 100 µM (inactive) | 
5 | COC1CC2C=CC3C4OC2(/C(C)=C/C(C)C(C(C)O)OC1=O)C3C(O)C(C)C4OC(=O)c1ccc[nH]1 (centres undefined) | 45.5 µM (inactive) | > 100 µM (inactive) | 23.4 µM (inactive) | > 100 µM (inactive) | > 100 µM (inactive) | > 100 µM (inactive) | 35.6 µM (inactive) |  | 48.9 µM (inactive) | 25.9 µM (inactive) |  | 38.2 µM (inactive) | > 100 µM (inactive) | 81.5 µM (inactive) | 92.5 | 94.8 µM (inactive) | 26.5 µM (inactive) | > 100 µM (inactive) | 30.9 µM (inactive) | > 100 µM (inactive)
6 | CCCCCCCCCCCCP(=O)(O)OCC(N)C(=O)O (centres undefined) | 21.4 µM (inactive) | 30.1 µM (inactive) | 16.9 µM (inactive) | 5.22 µM (inactive) | 18.7 µM (inactive) | 24.8 µM (inactive) | 30.9 µM (inactive) | > 100 µM (inactive) | 35.5 µM (inactive) |  | 39.4 µM (inactive) | 32.5 µM (inactive) | 12.3 µM (inactive) | 29.6 µM (inactive) | 17.5 | 27.5 µM (inactive) | 24.2 µM (inactive) | 27.9 µM (inactive) | 17.4 µM (inactive) | 34.1 µM (inactive)
7 | COC(=O)[C@@H]1[C@H](O)CC[C@H]2[C@@]1(C)CC[C@@H](C)[C@]2(COC(C)=O)CC(=O)c1ccoc1 | > 50 µM (inactive) | > 50 µM (inactive) | 28.6 µM (inactive) | 35.7 µM (inactive) | > 50 µM (inactive) | > 50 µM (inactive) | 26.1 µM (inactive) |  | > 50 µM (inactive) | 16.7 µM (inactive) |  | > 50 µM (inactive) | > 50 µM (inactive) | > 50 µM (inactive) | > 50 | > 50 µM (inactive) | > 50 µM (inactive) | > 50 µM (inactive) | > 50 µM (inactive) | > 50 µM (inactive)
8 | C/C(=N\Nc1nc2ccccc2n1C)c1ccncn1 | 0.929 µM (active) | 0.0233 µM (active) | < 0.01 µM (active) | 0.0393 µM (active) |  | 0.128 µM (active) | 0.0202 µM (active) | < 0.0385 µM (active) | < 0.0238 µM (active) | 0.0618 µM (active) | < 0.0152 µM (active) | 0.102 µM (active) | 0.0391 µM (active) | 5.6 µM (inactive) | < 0.0186 | 0.08 µM (active) | 0.082 µM (active) | 2.52 µM (inactive) | 0.476 µM (active) | 1.52 µM (inactive)
9 | CC(=O)O[C@H]1C(=O)[C@@]2(C)[C@H]([C@H](OC(=O)c3ccccc3)[C@]3(O)C[C@H](OC(=O)[C@H](O)[C@@H](NC(=O)c4ccc(N)cc4)c4ccccc4)C(C)=C1C3(C)C)[C@]1(OC(C)=O)CO[C@@H]1C[C@@H]2O | < 0.005 µM (active) | 0.014 µM (active) | 0.0129 µM (active) | < 0.005 µM (active) | < 0.005 µM (active) | 0.00847 µM (active) | < 0.005 µM (active) |  | 0.0105 µM (active) | < 0.005 µM (active) | < 0.005 µM (active) | < 0.005 µM (active) | 8.32 µM (inactive) | 0.0384 µM (active) | 2.68 | 0.0369 µM (active) | < 0.005 µM (active) | < 0.005 µM (active) | 0.135 µM (active) | 0.00687 µM (active)
10 | COc1cc(/C=C2/SC(c3ccccc3)N(Cc3ccccc3)C2=O)cc(OC)c1OC (centres undefined) | 29.6 µM (inactive) |  | 14.4 µM (inactive) | 17.2 µM (inactive) | 33.7 µM (inactive) | 67 µM (inactive) | 14.4 µM (inactive) | 38.4 µM (inactive) | 37.7 µM (inactive) |  | 16.4 µM (inactive) | 12.1 µM (inactive) | 40.5 µM (inactive) | 39 µM (inactive) | 38.7 | 33.2 µM (inactive) | 14.2 µM (inactive) | 47.8 µM (inactive) | 30.6 µM (inactive) | 80.9 µM (inactive)
11 | C=C1C[C@@H]2O[C@H]3[C@H]4[C@@H](C[C@@H](C)[C@@H](OC(C)=O)[C@H]42)[C@@H](C)CO[C@@]3(C)[C@H](OC(=O)CCCCCCC)C[C@H]1O | 16.7 µM (inactive) | 17.5 µM (inactive) | 22.9 µM (inactive) | 16.4 µM (inactive) | 22.5 µM (inactive) | 18.2 µM (inactive) | 16.1 µM (inactive) |  | 16.2 µM (inactive) | 14.3 µM (inactive) | 22.9 µM (inactive) | 15.5 µM (inactive) | 15.8 µM (inactive) | 17.2 µM (inactive) | 15.8 | 15.5 µM (inactive) | 15.8 µM (inactive) | 20.3 µM (inactive) | 21.7 µM (inactive) | 17.5 µM (inactive)
